Where two headings read alike, the source gives them in different places.
Legend:
[1] = system: Staphylococcus aureus S13E; experiment: standard agar-dilution assay, MIC; format: cell-based
Description: (§1) The MIC's in Table III were determined by standard agar-dilutionassays. The MIC's in Table IV were obtained using a conventional broth-dilution microtiter test.

[2] = system: Staphylococcus aureus X1.1; experiment: standard agar-dilution assay, MIC; format: cell-based
Description: as §1

[3] = system: Staphylococcus epidermidis EPI1; experiment: standard agar-dilution assay, MIC; format: cell-based
Description: as §1

[4] = system: Staphylococcus epidermidis EPI2; experiment: standard agar-dilution assay, MIC; format: cell-based
Description: as §1

Streptococcus Group 9960 = experiment: standard agar-dilution assay, MIC; format: cell-based
Description: as §1

[5] = system: Streptococcus Group D X66; experiment: standard agar-dilution assay, MIC; format: cell-based
Description: as §1

[6] = system: Streptococcus pneumoniae Park I; experiment: standard agar-dilution assay, MIC; format: cell-based
Description: as §1

[7] = system: Streptococcus pyogenes C203; experiment: standard agar-dilution assay, MIC; format: cell-based
Description: as §1

[8] = system: Staphylococcus aureus V41; experiment: standard agar-dilution assay, MIC; format: cell-based; details: Staphylococcus aureus V41, penicillin resistant strain
Description: as §1
^b Penicillinresistant strain

[9] = system: Staphylococcus aureus X400; experiment: standard agar-dilution assay, MIC; format: cell-based; details: Staphylococcus aureus X400, methicillin resistant strain
Description: as §1
^c Methicillinresistant-strain

[10] = system: Haemophilus influenzae Holt; experiment: standard agar-dilution assay, MIC; format: cell-based; details: ampicillin sensitive strain
Description: as §1
^d Ampicillinsensitive strain

[11] = system: Haemophilus influenzae R252; experiment: standard agar-dilution assay, MIC; format: cell-based; details: Haemophilus influenzae R252, ampicillin resistant strain
Description: as §1
^e Ampicillinresistant strain

Mycoplasma gallisepticum = experiment: conventional broth-dilution microtiter test, MIC; format: cell-based
Description: as §1

Mycoplasma hyorhinis = experiment: conventional broth-dilution microtiter test, MIC; format: cell-based
Description: as §1

Mycoplasma synoviae = experiment: conventional broth-dilution microtiter test, MIC; format: cell-based
Description: as §1

[12] = system: Pasteurella multocida 17E; experiment: conventional broth-dilution microtiter test, MIC; format: cell-based; details: bovine isolate
Description: as §1

[13] = system: Pasteurella multocida 60A; experiment: conventional broth-dilution microtiter test, MIC; format: cell-based; details: avian isolate
Description: as §1

Staphylococcus aureus = experiment: conventional broth-dilution microtiter test, MIC; format: cell-based
Description: as §1

Streptococcus sp. 80 = experiment: conventional broth-dilution microtiter test, MIC; format: cell-based
Description: as §1

[14] = system: Streptococcus pyogenes C203; experiment: experimental bacterial infection in mice, ED50; format: in vivo; details: doses given 1 and 5 hours postinfection, read-out: ED50 (effective dose to protect 50% of the test animals)
Description: The ester derivatives of this invention have shown in vivo antimicrobial activity against experimental bacterial infections caused by gram-positivebacteria. When two doses of test compound were administered to mice with experimental infections, the activity observed was measured as an ED50 value [effective dose in mg/kg to protect 50% of the test animals: see Warren Wick, et al., J. Bacteriol. 81, 233-235 (1961)].
^a mg/kg × 2; doses given 1 and 5 hours postinfection

Row | Structure (SMILES) | MIC (minimal inhibitory concentration) [1] | MIC (minimal inhibitory concentration) [2] | MIC (minimal inhibitory concentration) [3] | MIC (minimal inhibitory concentration) [4] | MIC (minimal inhibitory concentration) (Streptococcus Group 9960) | MIC (minimal inhibitory concentration) [5] | MIC (minimal inhibitory concentration) [6] | MIC (minimal inhibitory concentration) [7] | MIC (minimal inhibitory concentration) [8] | MIC (minimal inhibitory concentration) [9] | MIC (minimal inhibitory concentration) [10] | MIC (minimal inhibitory concentration) [11] | MIC (minimal inhibitory concentration) (Mycoplasma gallisepticum) | MIC (minimal inhibitory concentration) (Mycoplasma hyorhinis) | MIC (minimal inhibitory concentration) (Mycoplasma synoviae) | MIC (minimal inhibitory concentration) [12] | MIC (minimal inhibitory concentration) [13] | MIC (minimal inhibitory concentration) (Staphylococcus aureus) | MIC (minimal inhibitory concentration) (Streptococcus sp. 80) | further results
1 | CCC(=O)OC1CC(=O)OC(CC)C(COC(=O)C(Cl)(Cl)Cl)C=C(C)C=CC(=O)C(C)CC(CC=O)C(OC2OC(C)C(OC3CC(C)(O)C(OC(=O)CC)C(C)O3)C(N(C)C)C2OC(C)=O)C1C (stereo not shown) [Compound 15, 2'-O-Acetyl-3,4"-Di-O-Propionyl-23-O-Trichloroacetyl-DMT] | 0.5 | 0.5 | 0.5 | 1 | 1 | 2 | 0.06 | 0.5 | 1 | 1 | 64 | 32 | 0.39 | 3.12 | 0.39 | 50 | 50 | 1.56 | 1.56 | –
2 | CCC1OC(=O)CC(OC(=O)C(Cl)(Cl)Cl)C(C)C(OC2OC(C)C(OC3CC(C)(O)C(O)C(C)O3)C(N(C)C)C2OC(C)=O)C(CC=O)CC(C)C(=O)C=CC(C)=CC1COC(=O)C(Cl)(Cl)Cl (stereo not shown) [Compound 12, 2'-O-acetyl-3,23-di-O-trichloroacetyl-DMT] | 1 | 1 | 1 | 2 | 2 | 2 | 0.125 | 0.5 | 2 | 2 | 32 | 16 | – | – | – | – | – | – | – | –
3 | CCC1OC(=O)CC(O)C(C)C(OC2OC(C)C(OC3CC(C)(O)C(OC(=O)Cc4ccccc4)C(C)O3)C(N(C)C)C2O)C(CC=O)CC(C)C(=O)C=CC(C)=CC1COC(=O)Cc1ccccc1 (stereo not shown) [Compound 6, 23,4"-Di-O-Phenylacetyl-DMT] | 1 | 1 | 1 | 1 | 0.5 | 0.5 | 0.125 | 0.25 | 1 | 1 | 64 | 64 | ≤ 0.048 | 0.195 | 0.39 | 50 | > 50 | 1.56 | 0.39 | –
4 | CCC1OC(=O)CC(OC(=O)C(Cl)(Cl)Cl)C(C)C(OC2OC(C)C(OC3CC(C)(O)C(OC(=O)C(Cl)(Cl)Cl)C(C)O3)C(N(C)C)C2OC(C)=O)C(CC=O)CC(C)C(=O)C=CC(C)=CC1COC(=O)C(Cl)(Cl)Cl (stereo not shown) [Compound 13, 2'-O-acetyl-3,23,4"-tri-O-trichloroacetyl-DMT] | 8 | 8 | 8 | 16 | 16 | 16 | 2 | 8 | 16 | 16 | 128 | 128 | – | – | – | – | – | – | – | –
5 | CCC(=O)OC1C(C)OC(OC2C(C)OC(OC3C(CC=O)CC(C)C(=O)C=CC(C)=CC(C)C(CC)OC(=O)CC(O)C3C)C(OC(C)=O)C2N(C)C)CC1(C)O (stereo not shown) [Compound 22, 2'-O-Acetyl-4"-O-Propionyl-DMOT] | 0.5 | 0.25 | 0.5 | 1 | 0.5 | 0.5 | 0.125 | 0.25 | 0.5 | 0.5 | – | – | 0.195 | 1.56 | 0.78 | 25 | 25 | 3.12 | 1.56 | ED50 ([14]; C203, mice, oral): 91 mg/kg; ED50 ([14]; C203, sc, mice, subcutaneous): > 30 mg/kg
6 | CCC1OC(=O)CC(O)C(C)C(OC2OC(C)C(OC3CC(C)(O)C(OC(=O)C(Cl)(Cl)Cl)C(C)O3)C(N(C)C)C2OC(C)=O)C(CC=O)CC(C)C(=O)C=CC(C)=CC1COC(=O)C(Cl)(Cl)Cl (stereo not shown) [Compound 11, 2'-O-acetyl-23,4"-di-O-trichloroacetyl-DMT] | 4 | 4 | 2 | 4 | 4 | 4 | 0.25 | 2 | 8 | 8 | 32 | 16 | – | – | – | – | – | – | – | –
7 | CCC(=O)OC1C(C)OC(OC2C(C)OC(OC3C(CC=O)CC(C)C(=O)C=CC(C)=CC(CO)C(CC)OC(=O)CC(O)C3C)C(O)C2N(C)C)CC1(C)O (stereo not shown) [Compound 16, 4"-O-Propionyl-DMT] | 0.5 | 0.5 | 0.5 | 1 | 0.5 | 0.5 | 0.06 | 0.125 | 0.5 | 1 | 4 | 2 | – | – | – | – | – | – | – | –
8 | CCC(=O)OCC1C=C(C)C=CC(=O)C(C)CC(CC=O)C(OC2OC(C)C(OC3CC(C)(O)C(OC(=O)CC)C(C)O3)C(N(C)C)C2O)C(C)C(OC(=O)CC)CC(=O)OC1CC (stereo not shown) [Compound 10, 3,23,4"-Tri-O-Propionyl-DMT] | 0.5 | 0.5 | 1 | 2 | 1 | 1 | 0.125 | 0.25 | 1 | 1 | – | – | ≤ 0.05 | 0.78 | 0.39 | 25 | 50 | 1.56 | 1.56 | ED50 ([14]; C203, mice, oral): > 150 mg/kg; ED50 ([14]; C203, sc, mice, subcutaneous): 13 mg/kg
9 | CCC1OC(=O)CC(O)C(C)C(OC2OC(C)C(OC3CC(C)(O)C(OC(=O)CC(C)C)C(C)O3)C(N(C)C)C2OC(C)=O)C(CC=O)CC(C)C(=O)C=CC(C)=CC1C (stereo not shown) [Compound 18, 2'-O-Acetyl-4"-O-Isovaleryl-DMOT] | 1 | 1 | 1 | 2 | 1 | 1 | 0.06 | 0.5 | 1 | 1 | 32 | 32 | 0.39 | 0.78 | – | 12.5 | > 50 | 0.78 | 0.39 | –

Reference: patent publication US4436733A, “4"- And 3-ester derivatives of DMT and DMOT” (Eli Lilly and Company, priority 1982, dated 1984)
